88 compounds from a melting point compilation (Tetko et al.; mined from patent text by program, amines drawn as free bases though some values may be those of a salt) can be followed below.

A value given as a limit tells only on which side of the number the result lay.

Usually melting point stands for the temperature of the solid-liquid transition. For the compound `COc1cccc(C(=C/C=C/C(=O)NCCCCCCc2cccnc2)c2cccc(OC)c2)c1`, the melting point was in the range of 66 to 70 °C.

Compound `c1ccc2c(NCCc3c[nH]cn3)nsc2c1` came in with a melting point of 222 to 224 °C.

Take `CC(C)Oc1c(C(=O)O)sc2c1CS(=O)CC2` (stereo not drawn): the melting point is 192 to 193 °C.

`O=C1CN(c2ccccc2)C(=O)N1S(=O)(=O)c1ccc(Oc2ccccc2)cc1` gave a melting point of 157 to 158 °C.

With `COCC(=O)NCc1cccc(-c2csc(N=C(N)N)n2)n1`, the melting point lay within 195 to 196 °C.

As to `O=C(Nc1ccc(C(F)(F)F)cc1)C(Cl)=NNc1ccc(Cl)cc1`, the melting point fell in the range of 167 to 168 °C.

With `CCOC(=O)Cc1nc(-c2ccc(F)cc2)oc1-c1cccs1`, the melting point lay within 116 to 117 °C.

On to `COC(=O)c1cc(I)ccc1NS(C)(=O)=O`, for which the melting point lay within 119 to 120 °C.

In turn, `O=S(=O)(c1ccccc1)c1c[nH]c2ncccc12` showed a melting point of over 250 °C.

In the case of `CC(=O)Nc1ccc(CO)cc1[N+](=O)[O-]`, the melting point was 114 to 115 °C.

Turning to `Cc1cc(C)nc(NC(=O)NS(=O)(=O)c2cccn2CCC#N)n1`, the melting point is 158 to 159 °C.

For `CC(C)(C)c1cc(NC(=O)Nc2ccc(OCCN3CCOCC3)c3ccccc23)[nH]n1`, the melting point lay in the range of 206 to 207 °C.

`CC1(C)CC(S(=O)C(F)c2c(F)cccc2F)=NO1` (stereo not drawn): the melting point was 87 °C.

As for `CCN(CC)c1ccc(/C=C/c2cc(/C=C/c3ccc4cc[nH]c4c3)[nH]n2)c(OC)c1`, the melting point was in the range of 104 to 108 °C.

Regarding `Cc1[nH]c(C(=O)N2CCC(C(=O)NCCCN(C)C)CC2)c(C)c1-c1nc2ccc(C(=O)c3ccccc3)cc2[nH]1`, the melting point fell in the range of 247 to 251 °C.

For `Cc1cc(=O)c(OCc2ccccc2)c(C(=O)NC2CCC2)o1`, the melting point fell in the range of 69.3 to 71 °C.

`CC(C)(C)CC(C)(C)c1cc(Cc2cc(C(C)(C)C)cc(-n3nc4ccccc4n3)c2O)c(O)c(C(C)(C)CC(C)(C)C)c1` came in with a melting point of 166 °C.

On to `O=C(Cc1ccn(-c2ccc(F)cc2)c1)N1C(=O)OC[C@@H]1Cc1ccccc1`, for which the melting point was in the range of 106 to 108 °C.

Compound `CSc1cc(S(F)(F)(F)(F)F)ccc1C#N` yielded a melting point of 101 to 102 °C.

As for `Cc1csc2c1c(-c1ccccc1)nc(=O)n2C`, the melting point fell in the range of 275 to 280 °C.

As to `O=[N+]([O-])c1ccc(Cc2nc3c(s2)CCCC3)cc1`, the melting point is 118 to 119 °C.

The compound `CCCc1c(OCCCCCOc2ccc(C(=O)c3ccccc3CC(=O)O)cc2CCC(=O)O)ccc2c1OCCC2=O` returned a melting point of 105 to 108 °C.

As to `O=S1(=O)C=C(N2CCCCC2)c2ccccc2O1`, the melting point fell in the range of 187 to 189 °C.

In turn, `Nc1cnc(-c2cc(Cl)ccc2Cl)c(N)n1` returned a melting point of 159 to 160 °C.

Compound `Clc1nccc(-c2ccc(Cl)c(Cl)c2)n1` returned a melting point of 126 to 127 °C.

Turning to `COc1ccc(CS[C@@H]2C[C@@H](CN=[N+]=[N-])N(S(=O)(=O)c3ccc4ccccc4c3)C2)cc1`, the melting point was determined as 143 °C.

`CC[C@@H]1CN(c2c(F)c(N)c3c(=O)c(C(=O)O)cn(C4CC4)c3c2OC)CC[C@H]1O` (relative stereo): the melting point is 217 to 219 °C.

With `CN(C)C(=S)CCC(c1ccccc1)(c1ccccc1)c1ccccc1`, the melting point fell in the range of 114 to 116 °C.

As for `CCOC(=O)C(=CN[C@@H](C)CO)C(=O)c1c(F)c(F)c(Br)c(F)c1F`, the melting point lay in the range of 127 to 134 °C.

The compound `CCCOC(=O)c1c(CSc2nccn2C)nc2cc(OC)c(OC)cc2c1-c1ccc(OC)c(OC)c1` gave a melting point of 131 to 132 °C.

For `Cc1ccc2c(c1)C(=O)N(CCN1CCC(c3noc4cc(F)ccc34)CC1)C2=O`, the melting point was 138 to 140 °C.

On to `CCc1c(C(=O)C(C)C)c2ccc(C#N)cc2n1Cc1ccccc1Cl`, for which the melting point was 132 to 134 °C.

With `CCC12CCC3C4=C(CCC3C1CCC2=O)CC(OC)=CC4` (stereo not drawn), the melting point fell in the range of 126 to 143 °C.

Consider `O=C(CN1CCN2c3ccccc3Cn3cccc3C2C1)c1ccc(Cl)cc1` (stereo not drawn), for which the melting point is 71 to 74 °C.

For the compound `CCOC(=O)C(C#N)=CN(C)C1CCCCC1`, the melting point was 71 to 72 °C.

Consider `Cc1cc(-c2cc(C(F)(F)F)n3ncc(-c4cccnc4)c3n2)ccc1Cl`, for which the melting point is 193 °C.

`c1ccc(C(c2ccc3cccnc3c2)n2ccnc2)cc1` (stereo not drawn) returned a melting point of 111 °C.

As for `Cn1c(CC(=O)O)cc2c1C(=O)c1sccc1CC2`, the melting point lay within 157 to 158 °C.

With `Cc1cc(F)c(F)c(C=O)c1O`, the melting point lay in the range of 53 to 56 °C.

`Nc1nc(NCCc2cc(Br)cs2)nc2c1ncn2C1OC(CO)C(O)C1O` (stereo not drawn) displayed a melting point of 136 to 144 °C.

`CN(C)C(=O)c1ccccc1Sc1ccc(Br)cc1[N+](=O)[O-]` registered a melting point of 112 to 114 °C.

`NC(=NO)c1ncn2c1COC(=O)c1c(Cl)cccc1-2` gave a melting point of 252 to 254 °C.

Regarding `Cc1nc2c(OCc3c(Cl)ccc(N(C)C(=O)CN4C(=O)c5ccccc5C4=O)c3Cl)cccc2n1C`, the melting point was 226 to 227 °C.

Turning to `CC(C)C(C#N)C(=O)NC(N)=O` (stereo not drawn), the melting point was in the range of 173 to 174 °C.

As to `C[C@]12CCC(=O)N[C@@H]1CCc1cc(Sc3cccc4ccccc34)ccc12`, the melting point is 199 to 201 °C.

For `O=C1NC(=S)NC(=O)C1=Cc1c[nH]c2ccccc12`, the melting point was 320 °C.

On to `COc1ccc2cc([C@H](C)C(=O)OCC(=O)N3CCC(CO[N+](=O)[O-])CC3)ccc2c1`, for which the melting point is 94 to 95 °C.

In the case of `N#Cc1c[nH]c2c(C(=O)O)cccc12`, the melting point stood at 318 °C.

In turn, `Cc1cccc(CC2CNC(=O)O2)c1` (stereo not drawn) came in with a melting point of 89 to 90.5 °C.

The compound `CC(C)(C(=O)c1ccccc1)n1cncn1` came in with a melting point of 134 to 135 °C.

Turning to `Cc1cc(Nc2cnc(C(=O)N(C)CCO)c(Nc3ccc(Cl)cc3)n2)n[nH]1`, the melting point lay in the range of 191 to 192 °C.

Regarding `Cc1ccc(-n2nc(OC(=O)c3ccccc3)c3c(c2=O)Cc2ccc(Cl)cc2N3)cc1`, the melting point was in the range of 248 to 250 °C.

The compound `CC(C)c1cc(C(O)(C(F)(F)F)C(F)(F)F)cc(C(C)C)c1NCC(=O)O` displayed a melting point of 130 to 132 °C.

`COc1cc(OC)nc(Oc2ccc3ccccc3c2C(=O)OCC=NOCC=CCl)n1` registered a melting point of 77 to 83 °C.

`O=C(OC1C(OCCBr)OC(COCc2ccccc2)C(O)C1OC(=O)c1ccccc1)c1ccccc1` (stereo not drawn) came in with a melting point of 78 to 80 °C.

`CC(=O)SC(CC(=O)N[C@@H](Cc1ccccc1)C(=O)O)C(=O)c1ccccc1` (stereo partly drawn) came in with a melting point of 110 to 112 °C.

`CC(=O)Nc1cc(-c2sc(-c3ccc(S(C)(=O)=O)cc3)nc2-c2cccc(Cl)c2)ccn1` showed a melting point of 216 to 217 °C.

`COC(=O)c1ccc(OC2=C3N=C4CCCCC4=C3C(Cc3ccc(OC)c(OC)c3)C=C2)o1` (stereo not drawn) yielded a melting point of 100 to 101 °C.

On to `OC1CC(c2ccc(-c3ccc(OCc4ccc(Br)cc4)cc3)cc2)Cc2ccccc21` (stereo not drawn), for which the melting point was found to be 178 °C.

For the compound `Cc1ccc(S(=O)(=O)Nc2ccc3nnc(C(=O)O)c(O)c3c2)cc1`, the melting point was in the range of 272 to 273 °C.

In turn, `COc1ccc(-c2nc(C(N)(C(F)(F)F)C(F)(F)F)[nH]c2-c2ccc(OC)cc2)cc1` had a melting point of 127 to 128 °C.

`COc1ccc2[nH]c(C)c(CC(N)=O)c2c1` yielded a melting point of 146 to 148 °C.

Regarding `CC(=O)OC1CC2(C)C(=O)CCC2C2CC=C3CC(O)CCC3(C)C12` (stereo not drawn), the melting point is 155 to 156 °C.

`CNC(=O)c1ccccc1-c1nc(-c2ccccc2)no1` returned a melting point of 145 to 146 °C.

Compound `O=C(O)CCCCCCCNS(=O)(=O)c1ccc(Br)cc1` registered a melting point of 115 to 116 °C.

`COc1c(C)cccc1CC(N)(CF)C(N)=O` (stereo not drawn) showed a melting point of 118 °C.

For `Cc1nc(N)ccc1-c1ccncc1`, the melting point fell in the range of 207 to 209 °C.

On to `CCCCCCCCCCOc1ccc2c(c1CCC)OC(CCC(=O)O)(CCC(=O)O)CC2=O`, for which the melting point is 144 to 146 °C.

`C(=C/c1cn(C(c2ccccc2)(c2ccccc2)c2ccccc2)cn1)/CCOCc1ccccc1` returned a melting point of 101 to 104 °C.

Compound `COc1cc(CO[Si](C(C)C)(C(C)C)C(C)C)ccc1OCc1nc(-c2cccc(-c3nnn[nH]3)c2)oc1C` returned a melting point of 152 to 153 °C.

In the case of `Cn1ccnc1Sc1ccc(Nc2c(C#N)cnc3cc(/C=C/CN4CCOCC4)ccc23)cc1Cl`, the melting point is 235 to 240 °C.

Turning to `CC(C)[C@H]1OC[C@H](Nc2nnc(Cc3ccc(O)nc3)c3ccccc23)CO1`, the melting point lay in the range of 108 to 109 °C.

Regarding `COCn1ccc(C(=O)c2ccc(Cc3ccc(F)cc3)o2)c(O)c1=O`, the melting point was in the range of 128 to 130 °C.

As for `CC(C)(C)OC(=O)C=Cc1cc2ccccc2o1`, the melting point is 56 to 57 °C.

With `O=C(NCCCCC(NC(=O)OCc1ccccc1)C(=O)NC1OC(C(=O)O)CC1O)OCc1ccccc1` (stereo not drawn), the melting point lay in the range of 86 to 100 °C.

In turn, `CC(C)(C)OC(=O)[C@H]1CCCN1CC(=O)N1CCC[C@@H]1C(=O)OC(C)(C)C` came in with a melting point of 75 to 76 °C.

Compound `Cn1nc(NC(=O)Cc2ccccc2)c(-c2ccncc2)c1-c1ccc(F)cc1` displayed a melting point of 158 to 160 °C.

On to `Cc1cc(-c2nnc(C(C)(C)C)o2)ccc1N=CN(C)C`, for which the melting point is 79 to 80 °C.

Consider `CCOc1cccc(-c2ccc(C3=CCN(S(=O)(=O)CC(=O)OC)CC3)cc2)c1`, for which the melting point fell in the range of 120 to 122 °C.

`CNC(=O)C1(C)NCCc2c1n(F)c1ccccc21` (stereo not drawn) displayed a melting point of 238 °C.

Take `Cc1nc2cc(Nc3nccc(-c4ccc(N5CCNCC5)nc4)n3)ccc2s1`: the melting point was in the range of 209 to 211 °C.

`Cc1cc(OCc2ccc(-c3ccc(OC(F)(F)F)cc3)nc2C)ccc1OC(C)(C)C(=O)O` gave a melting point of 149 to 151 °C.

Turning to `O=C(O)C1Cc2cc3c(=O)c4c(F)cccc4oc3c(Cl)c2O1` (stereo not drawn), the melting point is 300 °C.

Compound `CCCNC(=O)C(C)=Cc1ccc2c(c1)c(Cc1ccc(C(=O)OC)cc1OC)cn2CC(=O)N(C)C` had a melting point of 117 to 118 °C.

As to `O=C(O)c1ccc(=O)n(CCCNC(=O)c2ccccn2)c1`, the melting point was 180 to 182 °C.

In turn, `OCC(O)(Cn1cncn1)c1ccc(F)cc1F` (stereo not drawn) had a melting point of 99 to 100 °C.

Take `Clc1ccc(Oc2ccc(N3CCNCC3)nc2)cc1`: the melting point fell in the range of 98 to 100 °C.

As to `Cc1ccc(C=CCC(CCC(=O)O)(C(=O)C=Cc2ccc(Cl)cc2)c2ccccc2)cc1` (stereo not drawn), the melting point lay in the range of 170 to 180 °C.
